Laboratory results reported in ChEMBL document CHEMBL1124016, “Antihypertensive activity in a series of 1-piperazino-3-phenylindans with potent 5-HT2-antagonistic activity” (J Med Chem, 1988).

Experiments:
[1] = target: Serotonin 2 (5-HT2) receptor (Rattus norvegicus, UniProt P30994+P08909+P14842); assay: Inhibition of [3H]spiperone binding to 5-hydroxytryptamine 2 receptor from rat cortical membranes; assay type: cell membranes, Membrane
[2] = system: Rattus norvegicus; assay: Inhibition of phenylephrine induced pressor response in pithed rats (following i.v. administration of […]); assay type: functional; conditions: route intravenous
[3] = species on record: Mus musculus; assay: Inhibition of methyl phenidate induced stereotyped gnawing in mice; assay type: functional
[4] = species on record: Rattus norvegicus; assay: Ratio of phenylephrine ED50/ 5-HT ED50; assay type: functional
[5] = species on record: Rattus norvegicus; assay: Inhibition of L-5-HTP (L-5-hydroxytryptophan) induced head twitches in rat; assay type: functional
[6] = system: Rattus norvegicus; assay: Inhibition of 5-HT induced pressor response in pithed rats, after intravenous administration, activity is expressed as ED50; assay type: functional
[7] = target: T1, Adrenergic receptor alpha-1 (Rattus norvegicus, UniProt P15823+P23944+P43140); assay: Inhibition of [3H]prazosin binding to alpha-1 adrenergic receptor from rat cortical membranes; assay type: cell membranes, Membrane
T1 sequence (P15823 whole entry): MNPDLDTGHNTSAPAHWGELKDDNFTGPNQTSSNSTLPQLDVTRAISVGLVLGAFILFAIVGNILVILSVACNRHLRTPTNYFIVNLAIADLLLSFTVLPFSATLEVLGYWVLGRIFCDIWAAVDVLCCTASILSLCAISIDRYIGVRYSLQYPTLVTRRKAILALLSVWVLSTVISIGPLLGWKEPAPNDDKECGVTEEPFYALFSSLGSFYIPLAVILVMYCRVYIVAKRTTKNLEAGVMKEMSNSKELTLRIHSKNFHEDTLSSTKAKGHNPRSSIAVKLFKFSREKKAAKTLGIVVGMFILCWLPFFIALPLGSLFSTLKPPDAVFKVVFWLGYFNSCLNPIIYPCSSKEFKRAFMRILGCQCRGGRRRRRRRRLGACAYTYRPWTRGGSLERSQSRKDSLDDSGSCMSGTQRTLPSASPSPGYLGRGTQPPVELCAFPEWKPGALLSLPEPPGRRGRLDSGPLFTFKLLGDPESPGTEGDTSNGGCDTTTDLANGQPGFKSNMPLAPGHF
T1 sequence (P23944 whole entry): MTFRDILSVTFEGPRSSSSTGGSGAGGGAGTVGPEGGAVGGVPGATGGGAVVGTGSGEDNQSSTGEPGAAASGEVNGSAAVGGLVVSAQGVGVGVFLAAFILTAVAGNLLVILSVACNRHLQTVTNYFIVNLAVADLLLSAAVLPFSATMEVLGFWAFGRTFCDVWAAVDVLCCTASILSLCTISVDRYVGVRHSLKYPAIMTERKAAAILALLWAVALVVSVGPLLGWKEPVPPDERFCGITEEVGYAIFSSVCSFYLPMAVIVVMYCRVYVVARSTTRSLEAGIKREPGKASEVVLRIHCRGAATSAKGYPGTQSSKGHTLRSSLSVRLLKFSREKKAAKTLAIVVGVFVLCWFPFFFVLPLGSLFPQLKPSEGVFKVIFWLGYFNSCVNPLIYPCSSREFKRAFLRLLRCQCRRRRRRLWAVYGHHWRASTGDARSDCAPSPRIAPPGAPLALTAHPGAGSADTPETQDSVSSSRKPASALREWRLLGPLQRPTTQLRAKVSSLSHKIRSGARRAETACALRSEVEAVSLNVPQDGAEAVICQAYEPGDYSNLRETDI
T1 sequence (P43140 whole entry): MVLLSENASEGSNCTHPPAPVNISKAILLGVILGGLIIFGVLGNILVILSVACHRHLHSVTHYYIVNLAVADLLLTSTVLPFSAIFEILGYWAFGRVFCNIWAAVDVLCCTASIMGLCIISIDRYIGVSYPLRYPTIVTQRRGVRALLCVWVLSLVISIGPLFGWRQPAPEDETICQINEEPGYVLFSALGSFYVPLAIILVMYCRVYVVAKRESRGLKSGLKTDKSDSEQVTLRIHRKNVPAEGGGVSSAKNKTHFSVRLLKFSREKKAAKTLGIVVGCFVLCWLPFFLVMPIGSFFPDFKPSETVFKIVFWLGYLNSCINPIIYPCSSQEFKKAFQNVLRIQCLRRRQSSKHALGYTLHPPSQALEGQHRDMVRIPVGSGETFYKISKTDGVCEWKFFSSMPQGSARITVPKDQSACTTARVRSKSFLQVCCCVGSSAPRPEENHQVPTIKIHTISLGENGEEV

[8] = system: Rattus norvegicus; assay: Inhibition of 5-HT induced pressor response in pithed rats, after intravenous administration; assay type: functional
[9] = target: D(2) dopamine receptor (Rattus norvegicus, UniProt P61169); assay: Inhibition of [3H]spiperone binding to Dopamine receptor D2 from rat striatal membranes; assay type: cell membranes, Membrane
Sequence of D(2) dopamine receptor (P61169 whole entry): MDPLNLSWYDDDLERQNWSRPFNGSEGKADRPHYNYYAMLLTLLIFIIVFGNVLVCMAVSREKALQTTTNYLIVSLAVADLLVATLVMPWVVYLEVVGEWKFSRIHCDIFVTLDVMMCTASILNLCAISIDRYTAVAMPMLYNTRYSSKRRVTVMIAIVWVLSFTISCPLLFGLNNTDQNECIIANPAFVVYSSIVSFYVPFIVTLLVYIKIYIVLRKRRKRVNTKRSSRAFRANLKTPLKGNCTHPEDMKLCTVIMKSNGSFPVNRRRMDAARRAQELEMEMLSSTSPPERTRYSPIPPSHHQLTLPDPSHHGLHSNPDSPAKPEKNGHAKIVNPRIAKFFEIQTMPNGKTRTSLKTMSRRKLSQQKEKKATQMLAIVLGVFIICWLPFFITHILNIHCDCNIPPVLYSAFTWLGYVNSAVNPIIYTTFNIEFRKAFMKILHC

[10] = system: Rattus norvegicus; assay: Percent reduction of systolic arterial blood pressure(SAP) in spontaneously hypertensive rat after 10 min at intraperitoneal administration of 5 mg/kg; assay type: functional
[11] = system: Rattus norvegicus; assay: Percent reduction of diastolic arterial blood pressure(DAP) in spontaneously hypertensive rat after 10 min at intraperitoneal administration of 5 mg/kg; assay type: functional
[12] = system: Rattus norvegicus; assay: Inhibition of 5-HT induced pressor response in pithed rats, after intravenous administration of 0.02 mg/kg; assay type: functional
[13] = target: Sodium-dependent dopamine transporter (Rattus norvegicus, UniProt P23977); assay: In vitro inhibition of [3H]dopamine uptake in rat brain synaptosomes; assay type: subcellular
Sequence of Sodium-dependent dopamine transporter (P23977 whole entry): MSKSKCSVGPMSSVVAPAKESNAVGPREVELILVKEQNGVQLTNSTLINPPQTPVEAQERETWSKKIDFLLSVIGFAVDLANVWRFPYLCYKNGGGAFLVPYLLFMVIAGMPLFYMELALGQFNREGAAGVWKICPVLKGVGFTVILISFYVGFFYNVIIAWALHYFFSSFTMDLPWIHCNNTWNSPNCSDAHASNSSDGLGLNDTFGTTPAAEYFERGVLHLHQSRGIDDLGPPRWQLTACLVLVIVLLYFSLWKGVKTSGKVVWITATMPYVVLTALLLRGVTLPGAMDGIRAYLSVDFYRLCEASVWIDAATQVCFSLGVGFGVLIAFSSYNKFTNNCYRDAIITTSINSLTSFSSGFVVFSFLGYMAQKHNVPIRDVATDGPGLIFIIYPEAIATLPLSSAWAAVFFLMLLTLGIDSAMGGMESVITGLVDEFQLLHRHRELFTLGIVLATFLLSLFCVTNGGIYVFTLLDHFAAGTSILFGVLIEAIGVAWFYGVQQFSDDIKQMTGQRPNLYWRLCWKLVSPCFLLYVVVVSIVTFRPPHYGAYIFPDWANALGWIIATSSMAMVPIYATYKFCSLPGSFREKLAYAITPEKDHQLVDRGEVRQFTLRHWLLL

[14] = target: Norepinephrine transporter (Rattus norvegicus, UniProt Q9WTR4); assay: In vitro inhibition of [3H]norepinephrine uptake in rat brain synaptosomes; assay type: subcellular
Sequence of Norepinephrine transporter (Q9WTR4 whole entry): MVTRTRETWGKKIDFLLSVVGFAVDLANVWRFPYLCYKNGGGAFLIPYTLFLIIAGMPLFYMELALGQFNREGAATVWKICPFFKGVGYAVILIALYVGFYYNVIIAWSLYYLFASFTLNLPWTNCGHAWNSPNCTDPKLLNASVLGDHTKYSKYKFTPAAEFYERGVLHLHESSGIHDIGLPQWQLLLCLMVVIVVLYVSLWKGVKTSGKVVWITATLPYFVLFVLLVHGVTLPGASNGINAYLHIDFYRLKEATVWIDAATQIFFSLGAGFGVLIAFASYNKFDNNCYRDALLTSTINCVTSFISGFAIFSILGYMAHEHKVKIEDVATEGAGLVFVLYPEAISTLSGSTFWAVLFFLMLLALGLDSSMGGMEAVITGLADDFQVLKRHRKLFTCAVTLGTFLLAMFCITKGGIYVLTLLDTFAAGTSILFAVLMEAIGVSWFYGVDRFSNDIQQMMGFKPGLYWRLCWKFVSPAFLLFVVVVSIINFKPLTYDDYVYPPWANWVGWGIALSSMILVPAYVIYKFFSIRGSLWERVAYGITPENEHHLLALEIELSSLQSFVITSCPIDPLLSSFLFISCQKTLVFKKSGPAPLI

[15] = target: Sodium-dependent serotonin transporter (Rattus norvegicus, UniProt P31652); assay: In vitro inhibition of [3H]5-HT transporter uptake in rat brain synaptosomes; assay type: subcellular
Sequence of Sodium-dependent serotonin transporter (P31652 whole entry): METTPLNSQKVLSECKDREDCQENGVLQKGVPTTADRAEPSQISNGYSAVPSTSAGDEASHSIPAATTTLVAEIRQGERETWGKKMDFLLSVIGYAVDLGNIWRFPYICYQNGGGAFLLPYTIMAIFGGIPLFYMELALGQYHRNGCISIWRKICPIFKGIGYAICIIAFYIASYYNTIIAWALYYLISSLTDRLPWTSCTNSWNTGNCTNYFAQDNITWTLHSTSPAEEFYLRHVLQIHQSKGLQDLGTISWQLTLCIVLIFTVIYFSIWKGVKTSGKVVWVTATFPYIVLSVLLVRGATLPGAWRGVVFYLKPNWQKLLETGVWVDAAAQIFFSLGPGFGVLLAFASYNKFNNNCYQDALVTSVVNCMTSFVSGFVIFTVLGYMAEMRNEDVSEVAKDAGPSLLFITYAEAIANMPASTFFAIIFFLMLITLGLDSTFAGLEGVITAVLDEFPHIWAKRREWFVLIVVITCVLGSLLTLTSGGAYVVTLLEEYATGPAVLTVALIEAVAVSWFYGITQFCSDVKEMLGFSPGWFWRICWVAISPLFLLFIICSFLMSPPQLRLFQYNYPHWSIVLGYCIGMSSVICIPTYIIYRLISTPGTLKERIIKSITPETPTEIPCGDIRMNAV

[16] = system: Rattus norvegicus; assay: Percent reduction of blood pressure in spontaneously hypertensive rat after 10 min at intraperitoneal administration of 5 mg/kg; assay type: functional
[17] = Rattus norvegicus, read-out: ED50

Compound | IC50 [1] [nM] | Change [2] [%] | ED50 [3] [µmol/kg] | Ratio [4] | ED50 [5] | ED50 [6] [µmol/kg] | IC50 [7] [nM] | ED50 [8] [µmol/kg] | IC50 [9] [nM] | Reduction [10] [%] | Reduction [11] [%] | Change [12] [%] | IC50 [13] [nM] | IC50 [14] [nM] | IC50 [15] [nM] | other results
O.O=c1[nH]c2ccccc2c(=O)n1CCN1CCN(C2CC(c3ccc(F)cc3)c3ccc(F)cc32)CC1 (stereo unspecified) | 2.9 | -57 | > 79 | 13 | 2.3 µmol/kg | 0.43 | 5.3 | 0.032 | 19 | -29 | -46 | -52 |  |  |  | 
Fc1ccc([C@@H]2C[C@@H](N3CCNCC3)c3ccccc32)cc1.O=C(O)/C=C\C(=O)O.O=C(O)/C=C\C(=O)O | 18 | 10 | > 76 | 83 | 1.7 µmol/kg | 8.3 | 37 | 0.1 | 580 | -25 | -31 | -40 | 280 | 450 | 42 | 
O=C(O)/C=C\C(=O)O.O=C(O)/C=C\C(=O)O.O=C1NCCN1CCN1CCN([C@H]2C[C@H](c3ccc(F)cc3)c3ccc(F)cc32)CC1 | 320 | 11 | > 61 |  | 20 µmol/kg |  | 900 | 0.93 | 4500 |  |  | 2 | 67 | 17 | 2200 | Increase [10]: 6%; Increase [11]: 4%
Fc1ccc([C@H]2C[C@H](N3CCNCC3)c3ccccc32)cc1.O=C(O)/C=C\C(=O)O.O=C(O)/C=C\C(=O)O | 180 | 41 | > 76 |  |  |  | 540 |  | 8500 |  |  | -3 | 220 | 140 | 400 | Reduction [16]: -2%; ED50 [5, 17]: 13 µmol/kg
O=C(O)/C=C\C(=O)O.O=C(O)/C=C\C(=O)O.O=C1NCCN1CCN1CCN([C@@H]2C[C@@H](c3ccc(F)cc3)c3ccc(F)cc32)CC1 | 4.3 |  |  | 140 | 0.096 µmol/kg | 1.4 | 10 | 0.01 | 46 | -24 | -31 |  | 5700 | 2500 | 720 | 
Cl.Cl.OC1=NCCN1CCCN1CCN(C2CC(c3ccc(F)cc3)c3ccc(F)cc32)CC1 (stereo unspecified) | 5.6 |  | 55 | 87 | 2 µmol/kg | 2.7 | 12 |  | 46 | -12 | -19 |  |  |  |  | 
O.O=C1NCCN1CCN1CCN([C@H]2C[C@H](c3ccc(F)cc3)c3ccccc32)CC1 | 570 | 53 | > 97 |  |  |  | 540 | 2.7 | 13000 |  |  | -11 | 140 | 69 | 9700 | Reduction [16]: 3%; ED50 [5, 17]: > 97 µmol/kg
O=C1NCCN1CCN1CCN(C2CC(c3ccc(F)cc3)c3ccccc32)CC1 (stereo unspecified) | 4.2 |  | > 98 | 129 |  | 3.1 | 33 |  | 930 | -33 | -43 |  |  |  |  | 
CN1CCN([C@H]2C[C@H](c3ccc(F)cc3)c3ccc(F)cc32)CC1 | 43 | 5 | 42 |  |  |  | 85 |  |  |  |  | -43 | 81 | 28 | 610 | Reduction [16]: -5%; ED50 [5, 17]: 0.49 µmol/kg
CN1CCN(CCN2CCN([C@H]3C[C@H](c4ccc(F)cc4)c4ccc(F)cc43)CC2)C1=O | 410 | 72 | > 91 |  | > 45 µmol/kg |  | 1300 |  | 8500 |  | -1 | -6 |  |  |  | Increase [10]: 1%
O=C1NCCN1CCN1CCN(C2CC(c3ccc(F)cc3)c3ccc(F)cc32)CC1 (stereo unspecified) | 6.5 |  | > 47 | 153 |  | 2.6 | 24 |  | 200 | -13 | -19 |  |  |  |  | 
CN1CCN([C@@H]2C[C@@H](c3ccc(F)cc3)c3ccc(F)cc32)CC1 | 4.9 | -48 | 2.5 |  |  |  | 9.3 |  |  |  |  | -79 | 1700 | 12000 | 3900 | Reduction [16]: -28%; ED50 [5, 17]: 0.13 µmol/kg
OCCN1CCN([C@@H]2C[C@@H](c3ccc(F)cc3)c3ccc(C(F)(F)F)cc32)CC1 (racemic) [TEFLUDAZINE] | 8.4 |  | 0.071 | 69 |  | 2.4 | 17 | 0.035 | 16 | -18 | -24 |  |  |  |  | 
O=C1NCCN1CCN1CCN([C@@H]2C[C@@H](c3ccc(F)cc3)c3ccccc32)CC1 (stereo in doubt; 27) [IRINDALONE] | 520 |  |  |  | >196 µM/kg |  | 670 |  | 4600 |  |  |  | 100 | 44 | > 100000 | Reduction ([16]; 5 mg/kg): -3%; Change ([2]; […]): 33%; Change ([12]; 0.02 mg/kg): -3%
O=C1NCCN1CCN1CCN([C@@H]2C[C@@H](c3ccc(F)cc3)c3ccccc32)CC1 (stereo in doubt; (+)2) [IRINDALONE] | 3.4 |  | > 72 | 171 | 0.56 µM/kg | 0.77 | 26 | 0.0045 |  |  |  |  | 25000 | 22000 | 14000 | Reduction ([16]; 5 mg/kg): -48%; Change ([2]; […]): -42%; Change ([12]; 0.02 mg/kg): -85%
